Consider 16 molecules from patent publication US20260285888A1, “HETEROCYCLIC COMPOUND AND USE THEREOF” (OTSUKA PHARMACEUTICAL CO., LTD., priority 2023, published 2026).

Molecules are shown by their SMILES.

The nature of one data set: in vitro. Format: cell-based, human. The conditions noted are these: human, differentiated hl-60 cells, 300 μmol/L, about 24 hours, PMA-differentiated HL-60 cells, LDH; no-treatment 0%, cell lysis buffer 100%; read-out: cytotoxicity (%) Evaluation compound results. The method, then: An HL-60 cell line (human acute promyelocytic leukemia cells) was successively cultured in RPMI 1640 containing 20% fetal bovine serum (FBS) at 37° C. in 95% atmosphere/5% CO2. Before evaluation, the cells were pre-cultured for about 72 hours in the presence of 10 nM phorbol 12-myristate 13-acetate (PMA) to induce macrophage-like differentiation.
Evaluation compounds were dissolved in DMSO to obtain 30 mmol/L solutions (or suspensions). Each DMSO solution was diluted 100-fold with RPMI 1640 containing 2% FBS (final concentration of the compound: 300 μmol/L) to obtain a treatment solution. The culture supernatant of the differentiated HL-60 cells was removed, and each treatment solution was added and cultured for about 24 hours, followed by cytotoxicity evaluation.
The activity of lactate dehydrogenase (LDH) was measured in the treatment solutions exposed to the cells for about 24 hours by using a commercial kit (Cytotoxicity LDH Assay Kit-WST, Dojindo Laboratories) and a plate reader (Tecan Infinite M1000). The obtained measurement values were used to calculate cytotoxicity (%) as comparison values for each evaluation compound-treated group, with the no-treatment group taken as 0% and the cell lysis buffer-treated group taken as 100%. The test was conducted in triplicate in three wells each, and the average values were used as adopted values.

Data set [1] is described as follows: Study for confirmation of conversion to brexpiprazole in a buffer (stability of the evaluation compounds). Format: physicochemical. The conditions noted are these: for Concentration of brexpiprazole formed / Concentration of evaluation compound decreased: in buffer, average of duplicate; for Concentration of brexpiprazole formed: 60-minute reaction sample; for Concentration of evaluation compound decreased: decrease in 60-minute vs 0-minute reaction sample; for stability in the buffer / conversion to brexpiprazole (in words): Tris-hydrochloric acid buffer pH 7.5, 37° C., 60 minutes, 1 μmol/L. As for the experimental part: The conversion from the evaluation compounds to brexpiprazole in a buffer (i.e., the stability of the evaluation compounds) was evaluated.
The Example 1 compound was dissolved in acetonitrile/water (1:1, v/v) to 10 mmol/L and further diluted with acetonitrile/water (1:1, v/v) to 100 μmol/L for use.
The other Example compounds and the Reference Example 5 compound to Reference Example 7 compound were each dissolved in DMSO to 10 mmol/L and further diluted with acetonitrile to 100 μmol/L for use, except for the following compounds.
The compounds of Examples 52, 95, 96, 117, and 130 (EX 52, EX 95, EX 96, EX 117, and EX 130) were dissolved in acetonitrile/water (8:2, v/v) to 10 mmol/L and further diluted with acetonitrile to 100 μmol/L for use.
The compound of Example 97 (EX 97) was dissolved in acetonitrile/water (8:2, v/v) to 10 mmol/L and further diluted with acetonitrile/water (8:2, v/v) to 100 μmol/L for use.
The compounds of Examples 15 and 116 (EX 15 and EX 116) were dissolved in DMSO to 1 mmol/L and further diluted with acetonitrile to 100 μmol/L for use.
The reaction was conducted by preparing each reaction solution such that the final concentration of each component was as follows. The test was conducted in duplicate.
For the compounds of Examples 1 to 8, 10 to 19, 26 to 27, 37, 50, 87 to 89, 91, 116, 121, 123, 150, and 151 (EX 1 to EX 8, EX 10 to EX 19, EX 26 to EX 27, EX 37, EX 50, EX 87 to EX 89, EX 91, EX 116, EX 121, EX 123, EX 150, and EX 151), and the compounds of Reference Examples 5 to 7 (REX 5 to REX 7), the reaction solution without the evaluation compound (198 μl) was pre-incubated at 37° C. for 3 minutes, and then each of the evaluation compound solutions (2 μl) was added and stirred; thereafter, the reaction was started at 37° C. At 0 minutes or 60 minutes after the start of the reaction, the reaction was stopped by adding and stirring a reaction stop solution (1000 μl) composed of acetonitrile/isopropanol (4:1, v/v) containing internal standard substances. However, the 0-minute reaction sample (198 μl) was prepared by adding the evaluation compound (2 μl) after adding the reaction stop solution (1000 μl). The samples after stopping the reaction were used as the measurement samples. Calibration curve samples with the same composition were prepared (final concentrations of the evaluation compounds and brexpiprazole: 0.01, 0.1, and 1 μmol/L, with the proviso that for the evaluation compounds only, the 0-minute reaction samples were also used as calibration curve samples for 1 μmol/L).
For the compounds of Examples 24 to 25, 28 to 29, 32 to 36, 40 to 49, 51 to 60, 62 to 64, 66 to 77, 80 to 86, 90, 92 to 111, 113, 115, 117 to 120, 122, 124 to 130, 132 to 147, and 152 to 160 (EX 24 to EX 25, EX 28 to EX 29, EX 32 to EX 36, EX 40 to EX 49, EX 51 to EX 60, EX 62 to EX 64, EX 66 to EX 77, EX 80 to EX 86, EX 90, EX 92 to EX 111, EX 113, EX 115, EX 117 to EX 120, EX 122, EX 124 to EX 130, EX 132 to EX 147, and EX 152 to EX 160), the reaction solution without the evaluation compound (148.5 μl) was pre-incubated at 37° C. for 3 minutes, and then each of the evaluation compound solutions (1.5 μl) was added and stirred; thereafter, the reaction was started at 37° C. At 0 minutes or 60 minutes after the start of the reaction, the reaction was stopped by adding and stirring a reaction stop solution (600 μl) composed of acetonitrile/isopropanol (4:1, v/v) containing internal standard substances. However, the 0-minute reaction sample (148.5 μl) was prepared by adding the evaluation compound (1.5 μl) after adding the reaction stop solution (600 μl). The samples after stopping the reaction were used as the measurement samples. Calibration curve samples with the same composition were prepared (final concentrations of the evaluation compounds and brexpiprazole: 0.01, 0.1, and 1 μmol/L, with the proviso that for the evaluation compounds only, the 0-minute reaction samples were also used as calibration curve samples for 1 μmol/L). […]

For the molecule `COCC(=O)OCOP(=O)([O-])OC[N+]1(CCCCOc2ccc3ccc(=O)[nH]c3c2)CCN(c2cccc3sccc23)CC1` [EX 30, (4-(benzo[b]thiophen-4-yl)-1-(4-((2-oxo-1,2-dihydroquinolin-7-yl)oxy)butyl)piperazin-1-ium-1-yl)methyl ((2-methoxyacetoxy)methyl) phosphate], the cytotoxicity at 24 h, 300 µM in the data set “in vitro” came out at 14%.

For `CCOCC(=O)OCOP(=O)([O-])OC[N+]1(CCCCOc2ccc3ccc(=O)[nH]c3c2)CCN(c2cccc3sccc23)CC1` [EX 31, (4-(benzo[b]thiophen-4-yl)-1-(4-((2-oxo-1,2-dihydroquinolin-7-yl)oxy)butyl)piperazin-1-ium-1-yl)methyl ((2-ethoxyacetoxy)methyl) phosphate], the cytotoxicity at 24 h, 300 µM in “in vitro” is -8%.

Take `CC(C)=CCC/C(C)=C\COP(=O)([O-])OC[N+]1(CCCCOc2ccc3ccc(=O)[nH]c3c2)CCN(c2cccc3sccc23)CC1` [EX 38, (Z)-(4-(benzo[b]thiophen-4-yl)-1-(4-((2-oxo-1,2-dihydroquinolin-7-yl)oxy)butyl)piperazin-1-ium-1-yl)methyl (3,7-dimethylocta-2,6-dien-1-yl) phosphate]: in “in vitro”, the cytotoxicity at 24 h, 300 µM is 0%.

With `CC(C)=CCC/C(C)=C/COP(=O)([O-])OC[N+]1(CCCCOc2ccc3ccc(=O)[nH]c3c2)CCN(c2cccc3sccc23)CC1` [EX 39, (E)-(4-(benzo[b]thiophen-4-yl)-1-(4-((2-oxo-1,2-dihydroquinolin-7-yl)oxy)butyl)piperazin-1-ium-1-yl)methyl (3,7-dimethylocta-2,6-dien-1-yl) phosphate], the cytotoxicity at 24 h, 300 µM in the data set “in vitro” came to 2%.

Turning to `CCOC(=O)CCCCCOP(=O)([O-])OC[N+]1(CCCCOc2ccc3ccc(=O)[nH]c3c2)CCN(c2cccc3sccc23)CC1` [EX 61, (4-(benzo[b]thiophen-4-yl)-1-(4-((2-oxo-1,2-dihydroquinolin-7-yl)oxy)butyl)piperazin-1-ium-1-yl)methyl (6-ethoxy-6-oxohexyl) phosphate], in “in vitro”, the cytotoxicity at 24 h, 300 µM is 5%.

With `O=C(O)CCOP(=O)([O-])OC[N+]1(CCCCOc2ccc3ccc(=O)[nH]c3c2)CCN(c2cccc3sccc23)CC1` [EX 112, (4-(benzo[b]thiophen-4-yl)-1-(4-((2-oxo-1,2-dihydroquinolin-7-yl)oxy)butyl)piperazin-1-ium-1-yl)methyl (2-carboxyethyl) phosphate], the cytotoxicity at 24 h, 300 µM in “in vitro” is -7%.

Turning to `O=C(OCCCO)OCOP(=O)([O-])OC[N+]1(CCCCOc2ccc3ccc(=O)[nH]c3c2)CCN(c2cccc3sccc23)CC1` [EX 131, (4-(benzo[b]thiophen-4-yl)-1-(4-((2-oxo-1,2-dihydroquinolin-7-yl)oxy)butyl)piperazin-1-ium-1-yl)methyl ((((3-hydroxypropoxy)carbonyl)oxy)methyl) phosphate], in “in vitro”, the cytotoxicity at 24 h, 300 µM was found to be 10%.

`CCC(=O)OP(=O)([O-])OC[N+]1(CCCCOc2ccc3ccc(=O)[nH]c3c2)CCN(c2cccc3sccc23)CC1` [EX 148, (4-(benzothiophen-4-yl)-1-(4-((2-oxo-1H-quinolin-7-yl)oxy)butyl)piperazin-1-ium-1-yl)methyl propanoyl phosphate]: the cytotoxicity at 24 h, 300 µM in the data set “in vitro” was -5%.

For the molecule `CC(C)C(=O)OP(=O)([O-])OC[N+]1(CCCCOc2ccc3ccc(=O)[nH]c3c2)CCN(c2cccc3sccc23)CC1` [EX 149, (4-(benzothiophen-4-yl)-1-(4-((2-oxo-1H-quinolin-7-yl)oxy)butyl)piperazin-1-ium-1-yl)methyl 2-methylpropanoyl phosphate], in “in vitro”, the cytotoxicity at 24 h, 300 µM was -3%.

With `O=C(OC[N+]1(CCCCOc2ccc3ccc(=O)[nH]c3c2)CCN(c2cccc3sccc23)CC1)N1CCCCC1` [REX 4, 4-(benzo[b]thiophen-4-yl)-1-(4-((2-oxo-1,2-dihydroquinolin-7-yl)oxy)butyl)-1-(((piperidine-1-carbonyl)oxy)methyl)piperazin-1-ium iodide, reference compound], the cytotoxicity at 24 h, 300 µM in “in vitro” was 83%.

As for `CCC(=O)OC[N+]1(CCCCOc2ccc3ccc(=O)[nH]c3c2)CCN(c2cccc3sccc23)CC1.[I-]` [REX 5, 4-(Benzo[b]thiophen-4-yl)-1-(4-((2-oxo-1,2-dihydroquinolin-7-yl)oxy)butyl)-1-((propionyloxy)methyl)piperazin-1-ium iodide, reference compound], in data set [1], the “Concentration of brexpiprazole formed” value came to 260 nM and the “Concentration of evaluation compound decreased” value came to 200 nM.

As for `CCCCCC(=O)OC[N+]1(CCCCOc2ccc3ccc(=O)[nH]c3c2)CCN(c2cccc3sccc23)CC1.[I-]` [REX 6, 4-(Benzo[b]thiophen-4-yl)-1-((hexanoyloxy)methyl)-1-(4-((2-oxo-1,2-dihydroquinolin-7-yl)oxy)butyl)piperazin-1-ium iodide, reference compound], in data set [1], the “Concentration of brexpiprazole formed” value is 210 nM and the “Concentration of evaluation compound decreased” value amounted to 220 nM.

`CCCCCCOC(=O)OC[N+]1(CCCCOc2ccc3ccc(=O)[nH]c3c2)CCN(c2cccc3sccc23)CC1.[I-]` [REX 7, 4-(Benzo[b]thiophen-4-yl)-1-((((hexyloxy)carbonyl)oxy)methyl)-1-(4-((2-oxo-1,2-dihydroquinolin-7-yl)oxy)butyl)piperazin-1-ium iodide, reference compound]: in data set [1], the “Concentration of brexpiprazole formed” value amounted to 240 nM and the “Concentration of evaluation compound decreased” value was 270 nM.

As to `CCC(=O)OC[N+]1(CCCCOc2ccc3ccc(=O)[nH]c3c2)CCN(c2cccc3sccc23)CC1` [Reference Example 5, reference compound], the “stability in the buffer / conversion to brexpiprazole (in words)” value (from here on “stability in the buffer / conversion”) in data set [1] is “clearly degraded to brexpiprazole”.

For `CCCCCC(=O)OC[N+]1(CCCCOc2ccc3ccc(=O)[nH]c3c2)CCN(c2cccc3sccc23)CC1` [Reference Example 6, reference compound], the “stability in the buffer / conversion” value in data set [1] was “clearly degraded to brexpiprazole”.

`CCCCCCOC(=O)OC[N+]1(CCCCOc2ccc3ccc(=O)[nH]c3c2)CCN(c2cccc3sccc23)CC1` [Reference Example 7, reference compound]: the “stability in the buffer / conversion” value in data set [1] was “clearly degraded to brexpiprazole”.
